Reference: ChEMBL document CHEMBL1255345, “Efficacies of ceftobiprole medocaril and comparators in a rabbit model of osteomyelitis due to methicillin-resistant Staphylococcus aureus” (Antimicrob Agents Chemother, 2008)
Converted amounts (≈) assume the structure as drawn. The source made the active and inactive calls. The rule behind the calls is not given here.

Columns and labels:
[1] = Cmax in New Zealand rabbit at 80 mg/kg, sc administered every 6 hrs for 4 days measured after 1 hr post first dose by RP-HPLC/MS/MS; assay type: ADME, organism-based, Oryctolagus cuniculus; set-up: dose 80 mg/kg, route subcutaneous; details: in vivo
[2] = Cmax in New Zealand rabbit at 80 mg/kg, sc administered every 6 hrs for 4 days measured 16th dose by RP-HPLC/MS/MS; assay type: ADME, organism-based, Oryctolagus cuniculus; set-up: dose 80 mg/kg, route subcutaneous; details: in vivo
[3] = Drug level in tibial marrow of New Zealand rabbit at 40 mg/kg, sc administered every 6 hrs for 1 week measured after 3 hrs post last dose; details: read-out: Drug uptake
[4] = tested on: Oryctolagus cuniculus; test: Toxicity in methicillin-resistant Staphylococcus aureus-infected New Zealand rabbit osteomyelitis model assessed as body weight at 40 mg/kg, sc administered every 6 hrs for 4 days measured on week 6 postinfection (reference value: […] +/- […] kg); assay type: organism-based; details: in vivo
[5] = tested on: Staphylococcus aureus; test: Antimicrobial activity against methicillin-resistant Staphylococcus aureus infected in New Zealand rabbit osteomyelitis model assessed as improvement in rate of bone reconstruction at 40 mg/kg, sc administered every 6 hrs for 4 weeks measured on week 8 postinfection by radiographic analysis; assay type: functional, organism-based; set-up: dose 40 mg/kg
[6] = tested on: Staphylococcus aureus; test: Antimicrobial activity against methicillin-resistant Staphylococcus aureus infected in New Zealand rabbit osteomyelitis model assessed as improvement in rate of bone reconstruction at 40 mg/kg, sc administered every 6 hrs for 4 weeks measured on week 6 postinfection by radiographic analysis; assay type: functional, organism-based; set-up: dose 40 mg/kg
[7] = tested on: Staphylococcus aureus; test: Antimicrobial activity against methicillin-resistant Staphylococcus aureus infected in New Zealand rabbit osteomyelitis model assessed as improvement in rate of bone reconstruction at 40 mg/kg, sc administered every 6 hrs for 4 weeks measured on week 2 posttreatment by radiographic analysis
[8] = AUC in New Zealand rabbit at 80 mg/kg, sc administered every 6 hrs for 4 days measured after 1 hr post first dose by RP-HPLC/MS/MS; assay type: ADME, organism-based, Oryctolagus cuniculus; set-up: time < 1 hr, dose 80 mg/kg, route subcutaneous; details: plasma
[9] = tested on: Oryctolagus cuniculus; test: Toxicity in methicillin-resistant Staphylococcus aureus-infected New Zealand rabbit osteomyelitis model assessed as body weight at 40 mg/kg, sc administered every 6 hrs for 4 days measured on week 2 postinfection (reference value: […] +/- […] kg); assay type: organism-based; details: in vivo
[10] = Drug level in tibial matrix of New Zealand rabbit osteomyelitis model at 40 mg/kg, sc administered every 6 hrs for 1 week measured after 3 hrs post last dose; details: read-out: Drug uptake
[11] = tested on: Staphylococcus aureus; test: Antimicrobial activity against Staphylococcus aureus 168-1 isolated from osteomyelitis patient by broth macrodilution method; assay type: functional
[12] = Plasma concentration in New Zealand rabbit osteomyelitis model at 40 mg/kg, sc administered every 6 hrs for 1 week measured after 3 hrs post last dose
[13] = tested on: Oryctolagus cuniculus; test: Toxicity in methicillin-resistant Staphylococcus aureus-infected New Zealand rabbit osteomyelitis model assessed as body weight at 40 mg/kg, sc administered every 6 hrs for 4 days measured on week 4 postinfection (reference value: […] +/- […] kg); assay type: organism-based; details: in vivo
[14] = tested on: Oryctolagus cuniculus; test: Toxicity in methicillin-resistant Staphylococcus aureus-infected New Zealand rabbit osteomyelitis model assessed as body weight at 40 mg/kg, sc administered every 6 hrs for 4 days measured on week 8 postinfection (reference value: […] +/- […] kg); assay type: organism-based; details: in vivo
[15] = Cmax in New Zealand rabbit at 20 mg/kg, sc administered every 6 hrs for 4 days measured after 1 hr post first dose by RP-HPLC/MS/MS; assay type: ADME, organism-based, Oryctolagus cuniculus; set-up: dose 20 mg/kg, route subcutaneous; details: in vivo
[16] = Drug level in tibial matrix of New Zealand rabbit at 40 mg/kg, sc administered every 6 hrs for 1 week measured after 3 hrs post last dose; details: read-out: Drug uptake
[17] = Cmax in New Zealand rabbit at 20 mg/kg, sc administered every 6 hrs for 4 days measured 16th dose by RP-HPLC/MS/MS; assay type: ADME, organism-based, Oryctolagus cuniculus; set-up: dose 20 mg/kg, route subcutaneous; details: in vivo
[18] = tested on: Staphylococcus aureus; test: Antimicrobial activity against methicillin-resistant Staphylococcus aureus infected in New Zealand rabbit osteomyelitis model assessed as improvement in extent of bone remodeling at 40 mg/kg, sc administered every 6 hrs for 4 weeks measured on week 8 postinfection by radiographic analysis; assay type: functional, organism-based; set-up: dose 40 mg/kg
[19] = Drug level in tibial marrow of New Zealand rabbit osteomyelitis model at 40 mg/kg, sc administered every 6 hrs for 1 week measured after 3 hrs post last dose; details: read-out: Drug uptake
[20] = tested on: Staphylococcus aureus; test: Antimicrobial activity against methicillin-resistant Staphylococcus aureus infected in New Zealand rabbit osteomyelitis model assessed as improvement in extent of bone remodeling at 40 mg/kg, sc administered every 6 hrs for 4 weeks measured on week 6 postinfection by radiographic analysis; assay type: functional, organism-based; set-up: dose 40 mg/kg
[21] = AUC in human at 500 mg, infusion up to 1 hr; details: plasma
[22] = Cmax in New Zealand rabbit osteomyelitis model at 40 mg/kg, sc administered every 6 hrs for 4 days; assay type: ADME, organism-based, Oryctolagus cuniculus; set-up: dose 40 mg/kg, route subcutaneous; details: in vivo
[23] = AUC in New Zealand rabbit at 20 mg/kg, sc administered every 6 hrs for 4 days measured after 1 hr post first dose by RP-HPLC/MS/MS; assay type: ADME, organism-based, Oryctolagus cuniculus; set-up: time < 1 hr, dose 20 mg/kg, route subcutaneous; details: plasma
[24] = Cmin in New Zealand rabbit at 20 mg/kg, sc administered every 6 hrs for 4 days measured after 1 hr post first dose by RP-HPLC/MS/MS; assay type: ADME, organism-based, Oryctolagus cuniculus; set-up: dose 20 mg/kg, route subcutaneous; details: New Zealand, in vivo, read-out: Cmin
[25] = tested on: Staphylococcus aureus; test: Antimicrobial activity against methicillin-resistant Staphylococcus aureus infected in New Zealand rabbit osteomyelitis model assessed as improvement in extent of bone remodeling at 40 mg/kg, sc administered every 6 hrs for 4 weeks measured on week 2 posttreatment by radiographic analysis
[26] = Cmax in human at 500 mg, infusion up to 1 hr; details: in vivo

## Nc1nc(/C(=N/O)C(=O)N[C@@H]2C(=O)N3C(C(=O)O)=C(/C=C4\CCN([C@@H]5CCNC5)C4=O)CS[C@H]23)ns1 [CEFTOBIPROLE]
[1]
  Cmax: 83300 ng/mL
[2]
  Cmax: 58900 ng/mL
[3]
  concentration at 3 h: 2400 ng/g
[4]
  Activity: 2.86 kg
[5]
  Activity: Active
[6]
  Activity: Active
[7]
  Activity: Active
[8]
  AUC at 1 h: 215 µg·h/mL
[9]
  Activity: 2.64 kg
[10]
  concentration at 3 h: 900 ng/g
[11]
  MBC: 6.25 µg/mL (≈ 11.7 µM)
  MIC: 0.39 µg/mL (≈ 0.73 µM)
[12]
  concentration at 3 h: 4900 ng/mL
[13]
  Activity: 2.73 kg
[14]
  Activity: 3.07 kg
[15]
  Cmax: 23800 ng/mL
[16]
  concentration at 3 h: 300 ng/g
[17]
  Cmax: 22100 ng/mL
[18]
  Activity: Active
[19]
  concentration at 3 h: 12800 ng/g
[20]
  Activity: Active
[21]
  AUC at 1 h: 116 µg·h/mL
[22]
  Cmax: 76800 ng/mL
[23]
  AUC at 1 h: 65.3 µg·h/mL
[24]
  concentration at 1 h: 2700 ng/mL
[25]
  Activity: Active
[26]
  Cmax: 34200 ng/mL
